Experiments:
[1] = test system: cancer stem cells (CD44) in HuH-7 cells; assay: Inhibitory effect on cancer stem cells (FCM analysis of CD44), Example 6.4; format: cell-based, human; settings: CD44, day 2, IC-2 50 μM, 5-FU 0.5 μM, compared with control 1% DMSO
Method: CD44, a cancer stem cell marker, was used as an indicator to examine an inhibitory effect of IC-2 on cancer stem cells. First, 70 to 90% confluent HuH-7 cells were harvested and seeded at 1.5×10^6 cells per 10-cm cell culture dish. After 15 h, the cells were treated with hexachlorophene (15 μM), ICG-001 (15 μM), PKF118-310 (5 μM), IC-2 (50 μM), or 5-FU (0.5 μM), and the mixture was cultured at 37° C. Each control sample used was 1% DMSO, a solvent for each compound or the anti-cancer drug. Day 2 after the drug treatment, the cells were harvested from each culture dish. The cells were centrifuged at 1000 rpm and at 4° C. for 5 min to remove a supernatant and were then washed twice with 1 mL of 0.5% FBS/2 mM EDTA/PBS. Next, the cells were suspended in 500 μL of 5% BSA/0.5% FBS/2 mM EDTA/PBS for blocking at 4° C. for 15 min.
Then, 5 μL of a mouse anti-human CD44 monoclonal antibody (156-3C11, Cell Signaling Technology Inc., Danvers, Mass.) was added to 500 μL of the cell suspension. The mixture was resuspended and subjected to a primary antibody reaction in a dark room at 4° C. for 10 min. After that, the cells were washed 3 times with 1 mL of PBS. Subsequently, 1.0 μg of Alexa Fluor 488-labeled IgG (H+L) (Life Technologies Corp., Carlsbad, Calif.) was added and the mixture was suspended. Then, a secondary antibody reaction was carried out in a dark room at 4° C. for 10 min. […]

[2] = Liver cancer model mouse, body weight; format: in vivo, mice; settings: 30 mg/kg 5-FU or 50 mg/kg IC-2 intraperitoneally every three days
Method: CD44-positive HuH-7 cells were subcutaneously transplanted in mice. Next, the engrafted mice were divided into 3 groups (DMSO group: 5 mice; 5-FU group: 4 mice; and IC-2 group: 4 mice). Then, DMSO was added to prepare 30 mg/kg of 5-FU and 50 mg/kg of IC-2 such that each liquid volume was 100 μL; and 100% DMSO, a solvent for each drug, was used as a control sample. Subsequently, each drug was dosed intraperitoneally every three days. The body weight of each mouse and the long and short diameters of a tumor were measured every three days. The tumor volume was calculated by using the following equation: Tumor volume=Long diameter×(Short diameter)^2×0.5. The volume at Day 0 was used to normalize each tumor volume, and then a graph was created. To fully evaluate a 5-FU effect, the 5-FU dose was set to an amount 2 times the regular amount 15 mg/kg used in research articles. The concentration of IC-2 corresponding to a concentration at which Wnt/β-catenin signaling was inhibited in vitro was calculated. Then, the concentration was doubled to set an IC-2 dose.

liver fibrosis = assay: Carbon tetrachloride-induced fibrosis model mouse (Sirius Red staining); format: in vivo, C57BL/6 male mice; settings: carbon tetrachloride 8 weeks, drug for last 4 weeks, IC-2 10.6 mg/kg i.p. 3 times a week, vs vehicle group
Method: To induce anesthesia, 1-mL disposable syringe with a 27-G needle was used to intraperitoneally inject, into a mouse, 1 μL/g body weight of a systemic anesthetic somnopentyl (Kyoritsuseiyaku Corporation, Tokyo).
The liver tissue sample, as so resected, was fixed in 4% paraformaldehyde (Nacalai tesque, Kyoto) at room temperature for 16 h, embedded in paraffin, and sectioned with a microtome to prepare tissue sections, which were then stained by using a Picosirius Red Stain Kit (Polysciences Inc., Warrington, Pa.) in accordance with the attached protocol. After that, a BZ-9000 (KEYENCE CORPORATION, Osaka) was used to take 10 photographs of light-field enlarged images (100×) per tissue sample. The ratio of the red-stained fiber area to the total tissue area of each photographed image was quantified to calculate a fibrosis-positive area ratio.
Seven-week-old C57BL/6 male mice (Japan SLC, Inc., Shizuoka) were subjected to 1-week preparatory rearing and healthy ones were then used. The mice were housed in animal cages at a room temperature of 22±1° C. and a humidity of 50±5% throughout the preparatory rearing and experimental period and were given ad libitum access to food and water.
A microsyringe (ITO CORPORATION, Shizuoka) was used to intraperitoneally administer 0.2 ml/kg of carbon tetrachloride (CCl4; Wako Pure Chemical Industries, Ltd.) 3 times a week for 4, 6, or 8 weeks. […]

For `O=C1C(Cc2ccccc2)N2C(=O)CCN(C(=O)NCc3ccccc3)C2CN1Cc1cccc2ccccc12` (stereo not drawn) [IC-2], the “number of cancer stem cells” value [1] was “significant reduction in the number of cancer stem cells”, the body weight [2] was “no change in the body weight” and the “fibrosis area (Sirius Red staining)” value (liver fibrosis) was “decrease more than that of the vehicle group”.
